Patent US12202835B2, “Substituted aromatic ring-linked dioxinoquinazolines and dioxinoquinolines as kinase inhibitors” (BEIJING SCITECH-MQ PHARMACEUTICALS LIMITED, priority 2018, dated 2025)

Molecular target: MER kinase (Homo sapiens (Human), UniProt Q12866)
Assay: Assay of small molecular compounds for inhibiting the activity of MER kinase (LANCE TR-FRET)
Assay type: biochemical
How it was run: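 MER kinase preincubated 5 min at RT with compound (11 points, 0.042-2500 nM final), then ULight-poly GT and ATP added (4× stocks 200 nM and 20 μM) for 60 min at RT, 1% DMSO. Phosphorylation detected by LANCE TR-FRET; IC50 from % inhibition versus controls.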

Chain of MER kinase (Q12866 21-999): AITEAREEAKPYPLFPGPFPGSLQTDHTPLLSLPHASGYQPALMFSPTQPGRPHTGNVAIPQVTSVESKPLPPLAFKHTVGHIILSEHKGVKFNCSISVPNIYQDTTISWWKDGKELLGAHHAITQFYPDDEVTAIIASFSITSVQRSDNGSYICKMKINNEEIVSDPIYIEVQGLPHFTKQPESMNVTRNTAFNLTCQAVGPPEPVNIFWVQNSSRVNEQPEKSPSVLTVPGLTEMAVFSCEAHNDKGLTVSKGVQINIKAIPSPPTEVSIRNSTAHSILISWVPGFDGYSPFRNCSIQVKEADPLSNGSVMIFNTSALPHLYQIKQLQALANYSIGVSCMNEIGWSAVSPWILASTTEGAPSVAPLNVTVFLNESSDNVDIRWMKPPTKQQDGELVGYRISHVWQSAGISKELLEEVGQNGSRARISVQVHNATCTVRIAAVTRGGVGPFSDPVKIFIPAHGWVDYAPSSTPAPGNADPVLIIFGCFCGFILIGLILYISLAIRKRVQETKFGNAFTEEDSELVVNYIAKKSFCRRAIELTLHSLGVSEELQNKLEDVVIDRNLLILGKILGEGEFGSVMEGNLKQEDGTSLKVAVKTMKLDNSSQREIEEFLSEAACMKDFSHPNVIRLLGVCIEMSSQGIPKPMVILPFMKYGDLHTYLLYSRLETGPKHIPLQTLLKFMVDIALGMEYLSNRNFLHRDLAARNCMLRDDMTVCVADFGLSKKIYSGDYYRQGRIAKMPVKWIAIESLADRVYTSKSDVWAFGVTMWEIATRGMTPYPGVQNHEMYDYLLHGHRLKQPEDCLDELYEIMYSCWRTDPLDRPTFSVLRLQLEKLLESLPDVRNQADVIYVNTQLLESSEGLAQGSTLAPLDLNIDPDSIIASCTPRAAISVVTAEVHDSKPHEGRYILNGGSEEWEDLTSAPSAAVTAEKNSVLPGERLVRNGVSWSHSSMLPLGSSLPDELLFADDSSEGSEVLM

| IC50 [nM] | SMILES |
| --- | --- |
| ≤ 50 | CCOc1ccn(-c2ccc(F)cc2)c(=O)c1C(=O)Nc1ccc(Oc2ccnc3cc(OCCCN(C)C4CCC4)c4c(c23)OCCO4)c(F)c1 [Example 71, N-(4-((5-(3-(cyclobutyl(methyl)amino)propoxy)-2,3-dihydro-[1,4]dioxino[2,3-f]quinolin-10-yl)oxy)-3-fluorophenyl)-4-ethoxy-1-(4-fluorophenyl)-2-oxo-1,2-dihydropyridine-3-carboxamide] |
| ≤ 50 | CCOc1ccn(-c2ccc(F)cc2)c(=O)c1C(=O)Nc1ccc(Oc2ccnc3cc(OCC(C)C)c4c(c23)OCCO4)c(F)c1 [Example 58, N-(4-((5-(isobutyloxy)-2,3-dihydro-[1,4]dioxino[2,3-f]quinolin-10-yl)oxy)-3-fluorophenyl)-4-ethoxy-1-(4-fluorophenyl)-2-oxo-1,2-dihydropyridine-3-carboxamide] |
| ≤ 50 | CCOc1ccn(-c2ccc(F)cc2)c(=O)c1C(=O)Nc1ccc(Oc2ccnc3cc(OC4CCOC4)c4c(c23)OCCO4)c(F)c1 (centres unmarked) [Example 65, N-(4-((5-((tetrahydrofuran-3-yl)oxy)-2,3-dihydro-[1,4]dioxino[2,3-f]quinolin-10-yl)oxy)-3-fluorophenyl)-4-ethoxy-1-(4-fluorophenyl)-2-oxo-1,2-dihydropyridine-3-carboxamide] |
| ≤ 50 | CCOc1ccn(-c2ccc(F)cc2)c(=O)c1C(=O)Nc1ccc(Oc2ccnc3cc(OCCCN4CCOCC4)c4c(c23)OCCO4)cc1Cl [Example 73, N-(2-chloro-4-((5-(3-morpholinopropoxy)-2,3-dihydro-[1,4]dioxino[2,3-f]quinolin-10-yl)oxy)phenyl)-4-ethoxy-1-(4-fluorophenyl)-2-oxo-1,2-dihydropyridine-3-carboxamide] |
| ≤ 50 | COc1cc2ncnc(Oc3ccc(NC(=O)c4cccn(-c5ccc(F)cc5)c4=O)cc3F)c2c2c1OCCO2 [Example 1, N-(3-fluoro-4-((5-methoxy-2,3-dihydro-[1,4]dioxino[2,3-f]quinazolin-10-yl)oxy)phenyl)-1-(4-fluorophenyl)-2-oxo-1,2-dihydropyridine-3-carboxamide] |
| ≤ 50 | COCCCOc1cc2nccc(Oc3ccc(NC(=O)c4cn(C)c(=O)n(-c5ccc(F)cc5)c4=O)cc3F)c2c2c1OCCO2 [Example 80, N-(3-fluoro-4-((5-(3-methoxypropoxy)-2,3-dihydro-[1,4]dioxino[2,3-f]quinolin-10-yl)oxy)phenyl)-3-(4-fluorophenyl)-1-methyl-2,4-dioxo-1,2,3,4-tetrahydropyrimidine-5-carboxamide] |
| ≤ 50 | CCOc1ccn(-c2ccc(F)cc2)c(=O)c1C(=O)Nc1ccc(Oc2ccnc3cc(OCCCN4CCS(=O)(=O)CC4)c4c(c23)OCCO4)c(F)c1 [Example 51, N-(4-((5-(3-(1,1-dioxidothiomorpholino)propoxy)-2,3-dihydro-[1,4]dioxino[2,3-f]quinolin-1 0-yl)oxy)-3-fluorophenyl)-4-ethoxy-1-(4-fluorophenyl)-2-oxo-1,2-dihydropyridine-3-carboxamide] |
| ≤ 50 | CCOc1ccn(-c2ccc(F)cc2)c(=O)c1C(=O)Nc1ccc(Oc2ccnc3cc(OCCCO)c4c(c23)OCCO4)c(F)c1 [Example 54, N-(4-((5-(3-hydroxypropoxy)-2,3-dihydro-[1,4]dioxino[2,3-f]quinolin-10-yl)oxy)-3-fluorophenyl)-4-ethoxy-1-(4-fluorophenyl)-2-oxo-1,2-dihydropyridine-3-carboxamide] |
| ≤ 50 | COc1cc2ncnc(Oc3ccc(NC(=O)c4c(OC)ccn(-c5ccc(F)cc5)c4=O)cc3F)c2c2c1OCCO2 [Example 2, N-(3-fluoro-4-((5-methoxy-2,3-dihydro-[1,4]dioxino[2,3-f]quinazolin-10-yl)oxy)phenyl)-1-(4-fluorophenyl)-4-methoxy-2-oxo-1,2-dihydropyridine-3-carboxamide] |
| ≤ 50 | CCOc1ccn(-c2ccc(F)cc2)c(=O)c1C(=O)Nc1ccc(Oc2ccnc3cc(OCC#N)c4c(c23)OCCO4)c(F)c1 [Example 56, N-(4-((5-(cyanomethoxy)-2,3-dihydro-[1,4]dioxino[2,3-f]quinolin-10-yl)oxy)-3-fluorophenyl)-4-ethoxy-1-(4-fluorophenyl)-2-oxo-1,2-dihydropyridine-3-carboxamide] |
| 50 to 500 | COc1cn(-c2ccc(F)cc2C)nc1C(=O)Nc1ccc(Oc2ncnc3cc(OCCCN4CCOCC4)c4c(c23)OCCO4)c(F)c1 [Example 11, 1-(4-fluoro-2-methylphenyl)-N-(3-fluoro-4-((5-(3-morpholinopropoxy)-2,3-dihydro-[1,4]dioxino[2,3-f]quinazolin-10-yl)oxy)phenyl)-4-methoxy-1H-pyrazole-3-carboxamide] |
| ≤ 50 | CCOc1ccn(-c2ccc(F)cc2)c(=O)c1C(=O)Nc1ccc(Oc2ccnc3cc(OC4COC4)c4c(c23)OCCO4)c(F)c1 [Example 64, N-(4-((5-((oxetan-3-yl)oxy)-2,3-dihydro-[1,4]dioxino[2,3-f]quinolin-10-yl)oxy)-3-fluorophenyl)-4-ethoxy-1-(4-fluorophenyl)-2-oxo-1,2-dihydropyridine-3-carboxamide] |
| ≤ 50 | CCOc1cc2nccc(Oc3ccc(NC(=O)c4c(OCC)ccn(-c5ccc(F)cc5)c4=O)cc3F)c2c2c1OCCO2 [Example 62, N-(4-((5-ethoxy-2,3-dihydro-[1,4]dioxino[2,3-f]quinolin-10-yl)oxy)-3-fluorophenyl)-4-ethoxy-1-(4-fluorophenyl)-2-oxo-1,2-dihydropyridine-3-carboxamide] |
| ≤ 50 | CCOc1ccn(-c2ccc(F)cc2)c(=O)c1C(=O)Nc1ccc(Oc2ccnc3cc(OCCCN4CCC(C)(O)CC4)c4c(c23)OCCO4)c(F)c1 [Example 69, N-(4-((5-(3-(4-hydroxy-4-methylpiperidin-1-yl)propoxy)-2,3-dihydro-[1,4]dioxino[2,3-f]quinolin-10-yl)oxy)-3-fluorophenyl)-4-ethoxy-1-(4-fluorophenyl)-2-oxo-1,2-dihydropyridine-3-carboxamide] |
| ≤ 50 | CCOc1ccn(-c2ccc(F)cc2)c(=O)c1C(=O)Nc1ccc(Oc2ccnc3cc(OC(C)C)c4c(c23)OCCO4)c(F)c1 [Example 63, N-(4-((5-isopropoxy-2,3-dihydro-[1,4]dioxino[2,3-f]quinolin-10-yl)oxy)-3-fluorophenyl)-4-ethoxy-1-(4-fluorophenyl)-2-oxo-1,2-dihydropyridine-3-carboxamide] |
| ≤ 50 | CCOc1ccn(-c2ccc(F)cc2)c(=O)c1C(=O)Nc1ccc(Oc2ccnc3cc(OCCCN4CCOCC4)c4c(c23)OCCO4)c(Cl)c1 [Example 72, N-(4-((5-(3-morpholinopropoxy)-2,3-dihydro-[1,4]dioxino[2,3-f]quinolin-10-yl)oxy)-3-chlorophenyl)-4-ethoxy-1-(4-fluorophenyl)-2-oxo-1,2-dihydropyridine-3-carboxamide] |
| ≤ 50 | CC(C)n1cc(C(=O)Nc2ccc(Oc3ccnc4cc(OCCCN5CCC(C)(C)CC5)c5c(c34)OCCO5)c(F)c2)c(=O)n(-c2ccc(F)cc2)c1=O [Example 92, N-(3-fluoro-4-((5-(3-(4,4-dimethylpiperidin-1-yl)propoxy)-2,3-dihydro-[1,4]dioxino[2,3-f]quinolin-10-yl)oxy)phenyl)-3-(4-fluorophenyl)-1-isopropyl-2,4-dioxo-1,2,3,4-tetrahydropyrimidine-5-carboxamide] |
| ≤ 50 | CCOc1ccn(-c2ccc(F)cc2)c(=O)c1C(=O)Nc1ccc(Oc2ccnc3cc(OCC4CC4)c4c(c23)OCCO4)c(F)c1 [Example 59, N-(4-((5-(cyclopropylmethoxy)-2,3-dihydro-[1,4]dioxino[2,3-f]quinolin-10-yl)oxy)-3-fluorophenyl)-4-ethoxy-1-(4-fluorophenyl)-2-oxo-1,2-dihydropyridine-3-carboxamide] |
| ≤ 50 | CCOc1ccn(-c2ccc(F)cc2)c(=O)c1C(=O)Nc1ccc(Oc2ccnc3cc(OCCCN(C)CCOC)c4c(c23)OCCO4)c(F)c1 [Example 70, N-(4-((5-(3-((2-methoxyethyl)(methyl)amino)propoxy)-2,3-dihydro-[1,4]dioxino[2,3-f]quinolin-10-yl)oxy)-3-fluorophenyl)-4-ethoxy-1-(4-fluorophenyl)-2-oxo-1,2-dihydropyridine-3-carboxamide] |
| ≤ 50 | CCOc1ccn(-c2ccc(F)cc2)c(=O)c1C(=O)Nc1ccc(Oc2ccnc3cc(OCCCN4CCC(C)(C)CC4)c4c(c23)OCCO4)c(F)c1 [Example 67, N-(4-((5-(3-(4,4-dimethylpiperidin-1-yl)propoxy)-2,3-dihydro-[1,4]dioxino[2,3-f]quinolin-10-yl)oxy)-3-fluorophenyl)-4-ethoxy-1-(4-fluorophenyl)-2-oxo-1,2-dihydropyridine-3-carboxamide] |
| ≤ 50 | CCOc1ccn(-c2ccc(F)cc2)c(=O)c1C(=O)Nc1ccc(Oc2ccnc3cc(OCCCN4CCC(C)(N)CC4)c4c(c23)OCCO4)c(F)c1 [Example 68, N-(4-((5-(3-(4-amino-4-methylpiperidin-1-yl)propoxy)-2,3-dihydro-[1,4]dioxino[2,3-f]quinolin-10-yl)oxy)-3-fluorophenyl)-4-ethoxy-1-(4-fluorophenyl)-2-oxo-1,2-dihydropyridine-3-carboxamide] |
| ≤ 50 | CC(C)n1cc(C(=O)Nc2ccc(Oc3ccnc4cc(OCCCN5CCC(C)(N)CC5)c5c(c34)OCCO5)c(F)c2)c(=O)n(-c2ccc(F)cc2)c1=O [Example 93, N-(3-fluoro-4-((5-(3-(4-amino-4-methylpiperidin-1-yl)propoxy)-2,3-dihydro-[1,4]dioxino[2,3-f]quinolin-10-yl)oxy)phenyl)-3-(4-fluorophenyl)-1-isopropyl-2,4-dioxo-1,2,3,4-tetrahydropyrimidine-5-carboxamide] |
| ≤ 50 | CCOc1ccn(-c2ccc(F)cc2)c(=O)c1C(=O)Nc1ccc(Oc2ccnc3cc(OCCCC#N)c4c(c23)OCCO4)c(F)c1 [Example 57, N-(4-((5-(3-cyanopropoxy)-2,3-dihydro-[1,4]dioxino[2,3-f]quinolin-10-yl)oxy)-3-fluorophenyl)-4-ethoxy-1-(4-fluorophenyl)-2-oxo-1,2-dihydropyridine-3-carboxamide] |
